Tests used:
[1] = tested on: bleomycin-induced pulmonary fibrosis mouse; test: Bleomycin-induced pulmonary fibrosis mouse, Micro-CT volume of normal lung tissue; type: in vivo, C57BL/6J mice; conditions: for Volume of normal lung tissue: bleomycin 5 mg/kg model, S26 46.8 mg/kg intragastric, Mean ± SD, n = 4
Source text: In this experiment, the pulmonary fibrosis model was established by oral tracheal instilling of a bleomycin solution into the mouse, and then the compound S26 was administrated for treatment. A volume of a normal lung tissue of the mouse was quantified by carrying out CT photographing and three-dimensional reconstruction on a lung of the mouse to evaluate the influence of the vinpocetine derivative S26 on the degree of the bleomycin-induced pulmonary fibrosis of the mouse. Male 8-week-old C57BL/6J mice were purchased from Beijing Weitong Lihua Experimental Animal Technology Co., Ltd. One week after adaptive feeding, a lung development condition of the mouse was examined by micro-CT. The mice were divided into a blank control group (normal mice), a model group and a S26 administration group (46.8 mg/kg) according to a volume of a normal lung tissue. Subsequently, an inhalation anesthesia machine was used to carry out isoflurane inhalation to induce anesthesia. The mice in the model group and the administration group were given 5 mg/kg bleomycin solution through oral tracheal instilling to establish the pulmonary fibrosis model, while the mice in the control group were given the same volume of bleomycin solvent. The mice were administrated on day 8 after the establishment of the model, and were intragastrically administrated for 20 days continuously. Micro-CT imaging was carried out before the establishment of the model and on day 8, day 18 and day 28 after the establishment of the model to observe pulmonary fibrosis of the mice.

[2] = tested on: type-2 diabetes model db/db mice; test: 50% mechanical pain threshold (Von frey), type-2 diabetes db/db mice; type: in vivo, BKS db/db mice; conditions: S26 46.8 mg/kg/day intragastric, Mean ± SD, n = 6
Method: Type-2 diabetes mice: male 18-week-old BKS db/db mice were purchased from Jiangsu Gempharmatech Biotechnology Co., Ltd. One week after adaptive feeding, the mice were divided into a control group (db/m mice), a model group (db/db mice) and a S26 administration group (46.8 mg/kg/day) respectively according to body weight and blood sugar, and administrated intragastrically for four weeks continuously. This experiment was based on a principle that claws of rodents would have a withdrawal reflex under mechanical stimulation. A Von frey tactile measuring set was purchased from Ugo Basile Company, and Von frey filaments could provide 0.008 g to 300 g of stimulating force, wherein a thickness of the filaments determined a magnitude of the stimulating force. Specific experimental method: filaments with proper thicknesses were selected to vertically stimulate a skin, and the stimulating force was adjusted by replacing the filaments, until the filaments were bent. One mouse was tested for 6 times to determine a threshold, and a 50% mechanical pain threshold of the mouse was calculated according to 50% threshold=(10^(Xf+k δ))/10000, which was detected weekly before and after administration respectively.

[3] = tested on: type-2 diabetes model db/db mice; test: Motor nerve conduction velocity, type-2 diabetes db/db mice; type: in vivo, BKS db/db mice; conditions: for Motor nerve conduction velocity: db/db mice, S26 46.8 mg/kg/day intragastric, Mean ± SD, n = 3
Method: Type-2 diabetes mice: male 18-week-old BKS db/db mice were purchased from Jiangsu Gempharmatech Biotechnology Co., Ltd. One week after adaptive feeding, the mice were divided into a control group (db/m mice), a model group (db/db mice) and a S26 administration group (46.8 mg/kg/day) respectively according to body weight and blood sugar, and administrated intragastrically for four weeks continuously. Before administration, 2 weeks and 4 weeks after administration, motor nerve conduction velocities (MNCV) of left and right sides of each group of mice were detected, and a mean value of the velocities of two sides was taken as a nerve conduction velocity of each mouse. Specific experimental method: (1) electrode placement: a stimulating electrode was placed on a nerve trunk, a recording electrode was placed on a muscle belly, and a reference electrode was placed on a muscle tendon; and a ground electrode was placed between the stimulating electrode and the recording electrode. (2) Calculation of motor nerve conduction velocity: distal and proximal ends of the nerve trunk were stimulated in a super-strong manner, a compound muscle action potential could be recorded twice on a muscle innervated by the nerve, different latent periods of the compound muscle action potentials were measured, and a distance between the distal and proximal ends was divided by a difference between the two latent periods, so as to obtain the nerve conduction velocity. Computational formula: nerve conduction velocity (m/s)=distance between two ends (cm)×10/difference between two latent periods (ms).

[4] = tested on: STZ-induced type-1 diabetes model mice; test: Latent period of thermal pain, type-1 diabetic peripheral neuropathy mice; type: in vivo, C57BL/6J mice; conditions: type-1 mice, S26 46.8 mg/kg/day intragastric, Mean ± SD, n = 6
Method: (§1) Type-1 diabetes mice: male 8-week-old C57BL/6J mice were purchased from Beijing Vital River Laboratory Animal Technology Co., Ltd. One week after adaptive feeding, STZ (150 mg/kg) was injected intraperitoneally, and one week later, tail vein blood collection was carried out for blood sugar detection, and the mice with random blood sugar greater than 16 mmol/L were selected. Six weeks after STZ injection, the mice were divided into a control group (non-diabetic mice), a model group (DPN mice) and a S26 administration group (46.8 mg/kg/day) respectively according to body weight and blood sugar, and administrated intragastrically for four weeks continuously. A response of an animal to infrared thermal stimulation was detected weekly by an infrared plantar pain threshold detector (37370, purchased from Ugo Basile Company) before and after administration to characterize a thermal pain sensitivity of the animal. A mouse was put into a single cage equipped for the machine in advance to adapt for 20 minutes, and then plantar thermal stimulation was carried out on the mouse. […] The thermal pain sensitivity was evaluated by comparing the thermal stimulation time.

[5] = tested on: type-2 diabetes model db/db mice; test: Latent period of thermal pain, type-2 diabetes db/db mice; type: in vivo, BKS db/db mice; conditions: S26 46.8 mg/kg/day intragastric, Mean ± SD, n = 6
Method: as §1, with “Type-2” for “Type-1”, “18-week-old BKS db/db” for “8-week-old C57BL/6J”, “Jiangsu Gempharmatech Biotechnology” for “Beijing Vital River Laboratory Animal Technology”, “feeding,” for “feeding, STZ (150 mg/kg) was injected intraperitoneally, and one week later, tail vein blood collection was carried out for blood sugar detection, and the mice with random blood sugar greater than 16 mmol/L were selected. Six weeks after STZ injection,”, “(db/m” for “(non-diabetic”, “(db/db” for “(DPN”

For `CC[C@@]12C=C(C(=O)NCC(=O)OCCOCCOCCOCCO)n3c4c(c5ccccc53)CCN(CCC1)[C@H]42` [Compound S26], the “Volume of normal lung tissue” value ([1]; day 0 of administration (day 8 after model)) was 328.98 ± 34.15^ mm^3, the “Volume of normal lung tissue” value ([1]; day 10 of administration (day 18 after model)) was 486.71 ± 48.61^# mm^3 and the “Volume of normal lung tissue” value ([1]; day 20 of administration (day 28 after model)) was 536.70 ± 58.44^## mm^3. For the same compound, the “Volume of the normal lung tissue (in words, FIG. 3)” value ([1]; pulmonary fibrosis model mouse) was “obviously increase”, the “50% mechanical pain threshold” value ([2]; week 0 of administration) was 1.33 ± 0.56^ g and the “50% mechanical pain threshold” value ([2]; week 1 of administration) was 1.04 ± 0.55^ g. The “50% mechanical pain threshold” value ([2]; week 2 of administration) was 0.91 ± 0.37 g, the “50% mechanical pain threshold” value ([2]; week 3 of administration) was 0.72 ± 0.39 g and the “50% mechanical pain threshold” value ([2]; week 4 of administration) was 0.71 ± 0.42 g. The “Motor nerve conduction velocity” value ([3]; week 0 of administration) was 20.45 ± 3.94^ m/s, the “Motor nerve conduction velocity” value ([3]; week 2 of administration) was 29.70 ± 4.27 m/s and the “Motor nerve conduction velocity” value ([3]; week 4 of administration) was 36.57 ± 3.34 m/s. For the same compound, the “Motor nerve conduction velocity and anesthesia symptom (in words)” value ([3]; type-2 diabetes mouse, Tables 5 to 7) was “obviously improve”, the “Latent period of thermal pain” value ([4]; week 0 of administration) was 11.33 ± 0.67 ^ s and the “Latent period of thermal pain” value ([4]; week 1 of administration) was 8.19 ± 0.69 s. The “Latent period of thermal pain” value ([4]; week 2 of administration) was 6.97 ± 0.73 s, the “Latent period of thermal pain” value ([4]; week 3 of administration) was 6.16 ± 1.33 s and the “Latent period of thermal pain” value ([4]; week 4 of administration) was 6.38 ± 0.54 s. The “Latent period of thermal pain” value ([5]; week 0 of administration) was 15.55 ± 2.29 ^ s, the “Latent period of thermal pain” value ([5]; week 1 of administration) was 13.50 ± 2.05 ^ s and the “Latent period of thermal pain” value ([5]; week 2 of administration) was 12.00 ± 2.28 s. For the same compound, the “Latent period of thermal pain” value ([5]; week 3 of administration) was 8.62 ± 1.51 s and the “Latent period of thermal pain” value ([5]; week 4 of administration) was 7.65 ± 1.30 s.
